Where two headings read alike, the source gives them in different places.
Legend:
CK1δ = CK1δ (Homo sapiens (Human), UniProt P48730); assay: CK1δ kinase assay (Caliper LABCHIP electrophoretic separation of fluoresceinated peptide substrate and product); assay type: biochemical; settings: 200 pM CK1δ, 50 μM ATP, 1.5 μM peptide substrate, 22 hours at room temperature; read-out: CK1δ (IC50)
Description: CK1ε and CK1δ Kinase Assays
The kinase assay was performed in V-bottom 384-well plates. […] The reaction was incubated at room temperature for 22 hours and terminated by adding 45 μl of 35 mM EDTA to each sample. The reaction mixture was analyzed on the Caliper LABCHIP®3000 (Caliper, Hopkinton, Mass.) by electrophoretic separation of the unphosphorylated substrate and phosphorylated product. […] Compounds were dissolved at 10 mM in dimethylsulfoxide (DMSO) and evaluated at eleven concentrations. IC50 values were derived by non-linear regression analysis.

CK1ε = CK1ε (Homo sapiens (Human), UniProt P49674); assay: CK1ε kinase assay (Caliper LABCHIP electrophoretic separation of fluoresceinated peptide substrate and product); assay type: biochemical; settings: read-out: CK1ε (IC50)
Method in brief: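 Reactions ran 22 hours at room temperature and were stopped with EDTA. Phosphorylated product and unphosphorylated substrate were then separated electrophoretically. Compounds were tested at eleven concentrations, and IC50 values came from non-linear regression.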

[1] = 200 pM CK1ε, 50 μM ATP, 1.5 μM peptide substrate, 22 hours at room temperature

Sequence of CK1ε (P49674 whole entry): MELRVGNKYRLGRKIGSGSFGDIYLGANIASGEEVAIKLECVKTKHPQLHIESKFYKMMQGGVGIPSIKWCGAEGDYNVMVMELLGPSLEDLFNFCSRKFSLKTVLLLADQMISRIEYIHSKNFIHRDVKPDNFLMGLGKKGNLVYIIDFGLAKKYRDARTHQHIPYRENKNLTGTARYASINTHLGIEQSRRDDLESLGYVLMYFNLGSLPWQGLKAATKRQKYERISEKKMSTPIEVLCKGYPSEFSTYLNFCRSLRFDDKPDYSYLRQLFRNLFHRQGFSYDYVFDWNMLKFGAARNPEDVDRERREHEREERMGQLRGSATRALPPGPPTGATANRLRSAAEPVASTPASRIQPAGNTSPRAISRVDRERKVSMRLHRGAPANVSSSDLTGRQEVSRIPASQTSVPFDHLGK
Sequence of CK1δ (P48730 whole entry): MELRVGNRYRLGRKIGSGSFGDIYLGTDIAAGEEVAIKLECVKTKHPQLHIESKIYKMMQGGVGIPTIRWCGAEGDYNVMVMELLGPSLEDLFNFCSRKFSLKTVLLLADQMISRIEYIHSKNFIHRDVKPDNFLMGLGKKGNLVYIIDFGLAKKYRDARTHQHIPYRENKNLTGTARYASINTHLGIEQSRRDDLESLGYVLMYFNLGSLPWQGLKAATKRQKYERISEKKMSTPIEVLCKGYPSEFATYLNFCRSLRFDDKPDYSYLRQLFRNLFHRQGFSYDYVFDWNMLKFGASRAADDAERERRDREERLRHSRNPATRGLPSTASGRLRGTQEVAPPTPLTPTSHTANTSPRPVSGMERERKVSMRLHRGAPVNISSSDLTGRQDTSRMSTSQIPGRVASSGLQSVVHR

IC50 (CK1δ)	IC50 (CK1ε; [1])	SMILES	IC50 (CK1ε)
0.01 to 10 nM	0.01 to 10 nM	N#Cc1ccc(NC(=O)N2CCn3nc(-c4cncc(Cl)c4)c(C(N)=O)c3C2)cc1 [Compound 270, 2-(5-Chloropyridin-3-yl)-N^5-(4-cyanophenyl)-6,7-dihydropyrazolo[1,5-a]pyrazine-3,5(4H)-dicarboxamide]	
0.01 to 10 nM	0.01 to 10 nM	NC(=O)c1c(-c2cccc(Cl)c2)nn2c1CN(C(=O)Nc1ccc(Cl)c(Cl)c1)CC2 [Compound 164, 2-(3-Chlorophenyl)-N^5-(3,4-dichlorophenyl)-6,7-dihydropyrazolo[1,5-a] pyrazine-3,5(4H)-dicarboxamide]	
0.01 to 10 nM	0.01 to 10 nM	Cc1ccc(-c2nn3c(c2C(N)=O)CN(C(=O)Nc2ccc4c(c2)OC(F)(F)O4)CC3)cc1Cl [Compound 250, 2-(3-Chloro-4-methylphenyl)-N^5-(2,2-difluorobenzo[d][1,3]dioxol-5-yl)-6,7-dihydropyrazolo[1,5-a] pyrazine-3,5(4H)-dicarboxamide]	
0.01 to 10 nM	0.01 to 10 nM	CC(C)(C)c1cc(NC(=O)N2CCn3nc(-c4cccc(Cl)c4)c(C(N)=O)c3C2)ccc1C#N [Compound A42, N^5-(3-(tert-Butyl)-4-cyanophenyl)-2-(3-chlorophenyl)-6,7-dihydropyrazolo[1,5-a]pyrazine-3,5(4H)-dicarboxamide]	
0.01 to 10 nM	0.01 to 10 nM	NC(=O)c1c(-c2ccc(F)c(Cl)c2)nn2c1CN(C(=O)Nc1cc(F)c(F)c(F)c1)CC2 [Compound 187, 2-(3-Chloro-4-fluorophenyl)-N^5-(3,4,5-trifluorophenyl)-6,7-dihydropyrazolo[1,5-a] pyrazine-3,5(4H)-dicarboxamide]	
0.01 to 10 nM	0.01 to 10 nM	CC(C)(O)[C@H]1CN(C(=O)Nc2ccc(C#N)cc2)Cc2c(C(N)=O)c(-c3ccc(Cl)c(Cl)c3)nn21 (single isomer, unassigned) [Compound A35, N^5-(4-Cyanophenyl)-2-(3,4-dichlorophenyl)-7-(2-hydroxypropan-2-yl)-6,7-dihydropyrazolo[1,5-a]pyrazine-3,5(4H)-dicarboxamide]	
100 to 2000 nM	100 to 2000 nM	N#Cc1ccc(NC(=O)N2CCn3nc(-c4ccc(F)c(Cl)c4)c(C(=O)NC4CC4)c3C2)cc1 [Compound A65, 2-(3-Chloro-4-fluorophenyl)-N^5-(4-cyanophenyl)-N^3-cyclopropyl-6,7-dihydropyrazolo[1,5-a]pyrazine-3,5(4H)-dicarboxamide]	
0.01 to 10 nM	0.01 to 10 nM	NC(=O)c1c(-c2ccc(F)c(Cl)c2)nn2c1CN(C(=O)Nc1cc(C(F)(F)F)cc(C(F)(F)F)c1)CC2 [Compound 188, N^5-(3,5-Bis(trifluoromethyl)phenyl)-2-(3-chloro-4-fluorophenyl)-6,7-dihydropyrazolo[1,5-a] pyrazine-3,5(4H)-dicarboxamide]	

More lines, now with the values behind:

SMILES	IC50 (CK1δ)	IC50 (CK1ε; [1])	IC50 (CK1ε)
Cc1ccc(-c2nn3c(c2C(N)=O)CN(C(=O)Nc2ccc4c(c2)CS(=O)(=O)C4)CC3)cc1Cl [Compound 251, 2-(3-Chloro-4-methylphenyl)-N^5-(2,2-dioxido-1,3-dihydrobenzo[c]thiophen-5-yl)-6,7-dihydropyrazolo[1,5-a] pyrazine-3,5(4H)-dicarboxamide]	0.01 to 10 nM	0.01 to 10 nM	
NC(=O)c1c(-c2ccc(Cl)c(Cl)c2)nn2c1CN(C(=O)Nc1ccc(OC(F)(F)F)cc1)CC2 [Compound 213, 2-(3,4-Dichlorophenyl)-N^5-(4-(trifluoromethoxy)phenyl)-6,7-dihydropyrazolo[1,5-a] pyrazine-3,5(4H)-dicarboxamide]	0.01 to 10 nM	0.01 to 10 nM	
Cc1cccc(-c2nn3c(c2C(N)=O)CN(C(=O)Nc2ccc(C#N)cc2)CC3)c1 [Compound 289, N^5-(4-Cyanophenyl)-2-(m-tolyl)-6,7-dihydropyrazolo [1,5-a]pyrazine-3,5(4H)-dicarboxamide]	0.01 to 10 nM	0.01 to 10 nM	
NC(=O)c1c(-c2ccc(F)c(Cl)c2)nn2c1CN(C(=O)Nc1ccc(C(F)(F)F)c(Cl)c1)CC2 [Compound 176, N^5-(3-Chloro-4-(trifluoromethyl)phenyl)-2-(3-chloro-4-fluorophenyl)-6,7-dihydropyrazolo[1,5-a] pyrazine-3,5(4H)-dicarboxamide]	0.01 to 10 nM	0.01 to 10 nM	
CC(C)(C)c1cc(NC(=O)N2CCn3nc(-c4ccc(F)c(Cl)c4)c(C(N)=O)c3C2)ccc1C#N [Compound A51, N^5-(3-(tert-Butyl)-4-cyanophenyl)-2-(3-chloro-4-fluorophenyl)-6,7-dihydropyrazolo[1,5-a]pyrazine-3,5(4H)-dicarboxamide]	0.01 to 10 nM	0.01 to 10 nM	
Cc1cc(-c2nn3c(c2C(N)=O)CN(C(=O)Nc2ccc(C#N)c(F)c2)CC3)ccc1F [Compound 243, N^5-(4-Cyano-3-fluorophenyl)-2-(4-fluoro-3-methylphenyl)-6,7-dihydropyrazolo[1,5-a] pyrazine-3,5(4H)-dicarboxamide]	0.01 to 10 nM	0.01 to 10 nM	
Cc1nc2cc(-c3nn4c(c3C(N)=O)CN(C(=O)Nc3ccc(C#N)c(Cl)c3)CC4)cc(Cl)c2o1 [Compound 312, 2-(7-Chloro-2-methylbenzo[d]oxazol-5-yl)-N^5-(3-chloro-4-cyanophenyl)-6,7-dihydropyrazolo[1,5-a]pyrazine-3,5(4H)-dicarboxamide]	0.01 to 10 nM	0.01 to 10 nM	
NC(=O)c1c(-c2ccc(F)c(Cl)c2)nn2c1CN(C(=O)Nc1ccc(F)c(Cl)c1)CC2 [Compound 185, N^5,2-Bis(3-chloro-4-fluorophenyl)-6,7-dihydropyrazolo[1,5-a] pyrazine-3,5(4H)-dicarboxamide]	0.01 to 10 nM	0.01 to 10 nM	
N#Cc1ccc(NC(=O)N2Cc3c(C(N)=O)c(-c4ccc(F)c(Cl)c4)nn3CC2C(F)(F)F)cc1 (single isomer, unassigned) [Compound 336, 2-(3-Chloro-4-fluorophenyl)-N^5-(4-cyanophenyl)-6-(trifluoromethyl)-6,7-dihydropyrazolo[1,5-a]pyrazine-3,5(4H)-dicarboxamide]	0.01 to 10 nM	0.01 to 10 nM	
CC(C)(C)NC(=O)N1CCn2nc(-c3cc(Cl)cc(Cl)c3)c(C(N)=O)c2C1 [Compound 117, N^5-(tert-Butyl)-2-(3,5-dichlorophenyl)-6,7-dihydropyrazolo[1,5-a]pyrazine-3,5(4H)-dicarboxamide]	0.01 to 10 nM	0.01 to 10 nM	
COC(=O)N1CCC(NC(=O)N2CCn3nc(-c4cccc(F)c4)c(C(N)=O)c3C2)CC1 [Compound 99, Methyl 4-(3-carbamoyl-2-(3-fluorophenyl)-4,5,6,7-tetrahydropyrazolo[1,5-a]pyrazine-5-carboxamido)piperidine-1-carboxylate]	0.01 to 10 nM	0.01 to 10 nM	
Cc1ccc(-c2nn3c(c2C(N)=O)CN(C(=O)Nc2ccc(C#N)c(C(F)(F)F)c2)CC3)cc1Cl [Compound 253, 2-(3-Chloro-4-methylphenyl)-N^5-(4-cyano-3-(trifluoro-methyl)phenyl)-6,7-dihydropyrazolo [1,5-a]pyrazine-3,5(4H)-dicarboxamide]	0.01 to 10 nM		0.01 to 10 nM
CC1Cn2nc(-c3ccc(Cl)c(Cl)c3)c(C(N)=O)c2CN1C(=O)Nc1ccc(C#N)cc1 (single isomer, unassigned) [Compound 333, N^5-(4-Cyanophenyl)-2-(3,4-dichlorophenyl)-6-methyl-6,7-dihydropyrazolo[1,5-a]pyrazine-3,5(4H)-dicarboxamide]	0.01 to 10 nM	0.01 to 10 nM	
Cc1cc(-c2nn3c(c2C(N)=O)CN(C(=O)Nc2ccc(C#N)c(Cl)c2)CC3)ccc1F [Compound 244, N^5-(3-Chloro-4-cyanophenyl)-2-(4-fluoro-3-methylphenyl)-6,7-dihydropyrazolo[1,5-a] pyrazine-3,5(4H)-dicarboxamide]	0.01 to 10 nM	0.01 to 10 nM	
Cc1nc2cc(-c3nn4c(c3C(N)=O)CN(C(=O)Nc3ccc(C#N)c(C)c3)CC4)cc(Cl)c2o1 [Compound 313, 2-(7-Chloro-2-methylbenzo[d]oxazol-5-yl)-N^5-(4-cyano-3-methylphenyl)-6,7-dihydropyrazolo[1,5-a]pyrazine-3,5(4H)-dicarboxamide]	0.01 to 10 nM	0.01 to 10 nM	
NC(=O)c1c(-c2cccc(F)c2)nn2c1CN(C(=O)Nc1ccc(Cl)cc1)CC2 [Compound 10, N^5-(4-Chlorophenyl)-2-(3-fluorophenyl)-6,7-dihydropyrazolo[1,5-a]pyrazine-3,5(4H)-dicarboxamide]	0.01 to 10 nM	0.01 to 10 nM	
Cc1cc(NC(=O)N2CCn3nc(-c4cc(F)c5cnn(C)c5c4)c(C(N)=O)c3C2)ccc1C#N [compound 327]	0.01 to 10 nM	0.01 to 10 nM	
NC(=O)c1c(-c2ccc(Cl)c(Cl)c2)nn2c1CN(C(=O)Nc1ccc(Cl)c(Cl)c1)CC2 [Compound 209]	0.01 to 10 nM	0.01 to 10 nM	
CC(C)(C)NC(=O)N1CCn2nc(-c3ccc(F)cc3F)c(C(N)=O)c2C1 [Compound 124, N^5-(tert-Butyl)-2-(2,4-difluorophenyl)-6,7-dihydropyrazolo[1,5-a]pyrazine-3,5(4H)-dicarboxamide]	100 to 2000 nM	100 to 2000 nM	
NC(=O)c1c(-c2ccc(F)c(Cl)c2)nn2c1CN(C(=O)Nc1cc(Cl)cc(Cl)c1)CC2 [Compound 173, 2-(3-Chloro-4-fluorophenyl)-N^5-(3,5-dichlorophenyl)-6,7-dihydropyrazolo[1,5-a] pyrazine-3,5(4H)-dicarboxamide]	0.01 to 10 nM	0.01 to 10 nM	
